Data: ChEMBL document CHEMBL1146044, “Synthesis, enzymatic inhibition, and cancer cell growth inhibition of novel delta-lactam-based histone deacetylase (HDAC) inhibitors” (Bioorg Med Chem Lett, 2006)
Activity calls are given as the source filed them. No cut-off for these calls is given here.

Experiments:
Type in all cases: functional
PC-3 = test: Antiproliferative activity against human PC3 cells by SRB assay
NCI-H23 = test: Antiproliferative activity against human NCI-H23 cells by SRB assay
HCT-15 = test: Antiproliferative activity against human HCT15 cells by SRB assay
ACHN = test: Antiproliferative activity against human ACHN cells by SRB assay
LOX IMVI = test: Antiproliferative activity against human LOX-IMVI cells by SRB assay
MDA-MB-231 = test: Antiproliferative activity against human MDA-MB-231 cells by SRB assay

GI50 (PC-3) | GI50 (NCI-H23) [µM] | SMILES | further results
inactive | – | C=CCN1CCC=C(CCC(=O)NO)C1=O | –
– | > 10 | COc1ccc(CN2CCC=C(CCC(=O)NO)C2=O)c(OC)c1 | –
> 10 µM | > 10 | O=C(CCC1=CCCN(Cc2ccccc2)C1=O)NO | GI50 (HCT-15; Homo sapiens, HCT-15): > 10 µM; GI50 (ACHN): > 10 µM; GI50 (LOX IMVI): > 10 µM
– | – | O=C(CCCCCCC(=O)Nc1ccccc1)NO [VORINOSTAT] | GI50 (HCT-15): 0.82 µM; GI50 (MDA-MB-231): 0.66 µM
– | > 10 | O=C(CCC1=CCCN(CCc2ccccc2)C1=O)NO | –
